In paper PMC3297008, “Novel Marine Phenazines as Potential Cancer Chemopreventive and Anti-Inflammatory Agents” (Marine Drugs, 2012):
Read-outs that look alike come from different tables or passages of the source.

Columns and labels:
HL-60 cells = experiment: NIM-DAPI cell cycle analysis / apoptosis of HL-60 cells; type: cell-based; details: 24 h incubation, various concentrations
Method: Figure 3 NIM-DAPI cell cycle analysis of HL-60 cells. HL-60 cells (2 × 10^5 cells/well) were treated with different concentrations of the indicated compounds for 24 h. The media were discarded, and 4',6-diamidino-2-phenylindole solution (NIM-DAPI; Beckman Coulter) was added just before the measurement using a Cell Lab Quanta™ SC (Beckman Coulter) flow cytometer. NIM-DAPI-stained cells were analyzed after excitation. […] Results are representative of two experiments in triplicate.
HL-60 cells (2 × 10^5 cells/well) were treated with samples for 24 h. The media were discarded and nuclear isolation medium (4',6-diamidino-2-phenylindole, NIM-DAPI; Beckman Coulter) was added just before the measurement using a Cell Lab Quanta™ SC (Beckman Coulter) flow cytometer. NIM-DAPI-stained cells were analyzed after excitation.
HL-60 cells at a concentration of 2 × 10^6 cells/mL were incubated with testing phenazines at different concentrations for 24 h. The cells were fixed with 1% paraformaldehyde in PBS and treated with ethanol to permiabilize the cells. Positive and negative control cells were provided already fixed. The DNA labeling reaction was carried out at 22–24 °C overnight. This assay was run on a Cell Lab Quanta™ SC, Beckman Coulter flow cytometer equipped with a 488 nm Argon laser as the light source. Propidium Iodide (total cellular DNA) and Fluorescein (apoptotic cells) were used. Propidium Iodide (PI) fluoresces at about 623 nm and Fluorescein at 520 nm when excited at 488 nm. Following the manufacturer’s instructions, an APO-BRDU™ Kit (Phoenix Flow Systems, Inc.) with a two color TUNEL (Terminal deoxynucleotide transferase dUTP Nick End Labeling) capability for labeling DNA breaks and total cellular DNA to detect apoptotic cells was used.

ovine COX-1 = target: T1, ovine COX-1 (Ovis aries, UniProt P05979); experiment: COX-1 inhibition assay (LC-MS/MS of PGE2); type: biochemical
T1 sequence (P05979 25-600): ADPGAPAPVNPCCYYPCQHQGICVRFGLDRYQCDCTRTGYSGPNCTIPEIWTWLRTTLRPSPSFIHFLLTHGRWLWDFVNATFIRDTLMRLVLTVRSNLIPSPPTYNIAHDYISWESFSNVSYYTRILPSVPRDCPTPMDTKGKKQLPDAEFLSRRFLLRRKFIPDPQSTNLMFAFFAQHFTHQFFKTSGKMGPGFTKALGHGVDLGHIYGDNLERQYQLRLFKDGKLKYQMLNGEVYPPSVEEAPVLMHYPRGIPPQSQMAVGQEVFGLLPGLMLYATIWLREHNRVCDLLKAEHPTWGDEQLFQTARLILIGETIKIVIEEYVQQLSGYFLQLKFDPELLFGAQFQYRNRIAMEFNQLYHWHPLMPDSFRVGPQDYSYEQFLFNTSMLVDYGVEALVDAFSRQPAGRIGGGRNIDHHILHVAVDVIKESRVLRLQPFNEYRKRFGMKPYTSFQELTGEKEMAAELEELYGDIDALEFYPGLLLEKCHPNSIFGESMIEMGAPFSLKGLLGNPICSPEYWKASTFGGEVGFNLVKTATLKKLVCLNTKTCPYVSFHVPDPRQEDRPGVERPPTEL
Method: Each COX reaction was initiated by adding 20 µL of arachidonic acid in Tris-HCl (pH 8.0) buffer to give a final concentration of 5 µM. The reaction was terminated after 2 min by adding 20 µL of 2.0 M HCl. The surrogate standard PGE2-d4 was added to correct for errors or degradation during sample handling and for variation in injection volume or instrument response during LC-MS/MS. After 30 min, PGE2 and its surrogate standard were extracted from each incubation mixture using 800 µL of hexane/ethyl acetate (50:50, v/v). The organic phase was removed, evaporated to dryness, and reconstituted in 100 µL methanol/water (50:50, v/v) for analysis using LC-MS/MS with an Applied Biosystems AP4000 triple quadrupole mass spectrometer as described previously. The concentration of PGE2 in each sample was measured using LC-MS/MS, and the percent of COX inhibition by each test solution was determined by comparing the amount of PGE2 produced in the experiment with that produced in the negative control incubation. For IC50 value determination, 12 different concentrations of each inhibitor were assayed three times. The IC50 value of each inhibitor toward COX-1 or COX-2 was determined by plotting and analyzing the inhibition curve data using Graph Pad Prism 5 software. The selectivity of each inhibitor was calculated as the ratio of the IC50 values (COX-1/COX-2).

[1] = tested on: PGE2 production in LPS-induced RAW 264.7 cells; experiment: LPS-induced PGE2 production in RAW 264.7 cells (ELISA); type: cell-based; details: for IC50: read-out: PGE2 IC50; for inhibition at 50 µM: RAW264.7, read-out: PGE2 % inhibition (50 µM)
Method: RAW 264.7 cells (1 × 10^5 cells/well, 200 µL) were incubated in a 96-well culture plate in the presence of 5% CO2 at 37 °C for 24 h. The medium was changed to non-colored DMEM containing 5% FBS, and the cells were treated with various concentrations of compounds for 30 min followed by 1 μg/mL of LPS treatment for 24 h. Cell media were collected, diluted 18-times and used for measuring PGE2. Nunc-Immuno 96-well plates were coated with secondary antibody (goat anti-mouse IgG) affinity purified (Jackson Immuno Research Laboratories). Aliquots of cell media were added to the immune plate with primary PGE2 monoclonal antibody (Cayman Chemical) and a tracer PGE2-acetylcholinesterase (Cayman Chemical) and incubated overnight at room temperature in the dark. The next day, the wells were aspirated, washed, 200 µL of Elman’s reagent was added in each well, and incubated 2–5 h at 37 °C out of direct light until control wells reach an optical density 0.4–0.5. Gentle rotating/shaking was used to decrease the time required for color development. Absorbance was read at 412 nm. The PGE2 concentration of each sample was calculated from a PGE2 standard curve (PGE2 from Cayman Chemical). The percent inhibition as a function of the inhibitor concentration was graphed to determine the IC50 values (concentration at which there was 50% inhibition).

[2] = Mus musculus, RAW264.7, LPS-induced RAW 264.7 cells
[3] = Mus musculus, LPS-induced RAW 264.7 cells

Compound	accumulation of HL-60 cells in subG1 phase (apoptosis) (HL-60 cells)	IC50 (ovine COX-1) [µM]	IC50 ([1]; LPS-induced RAW 264.7 cells) [µM]	IC50 [1, 2] [µM]	inhibition at 50 µM [1, 3] [%]
CC1=C(Cn2c3ccc(Br)c(=O)c-3nc3ccccc32)CCC(C)(C)C1 [Phenazine 1]	accumulated in the subG1 phase of the cell cycle	11 ± 0.53	7.15 ± 2.03	7.5	72.5 ± 16.3
CC(C)=CCn1c2ccc(Br)c(=O)c-2nc2ccccc21 [Phenazine 2]	accumulated in the subG1 phase of the cell cycle	5.6 ± 0.61		0.89 ± 0.22	86.9 ± 12.9
CC1=C(Cn2c3cccc(=O)c-3nc3ccccc32)CCC(C)(C)C1 [Lavanducyanin 3, lavanducyanin]	accumulated in the subG1 phase of the cell cycle	30 ± 1.08		0.63 ± 0.16	80.6 ± 18.4
